Several values for one entry are separate records, joined by “and”; a condition that tells them apart may be missing. Equal entries are not always repeated.
Assays:
p-ERK = assay: Striatal p-ERK immunohistochemistry 1 h after single injection; type: in vivo, mouse; conditions: single injection 20 mg/kg i.p., individual mice
Method: Immunohistochemistry was performed as described in Papale et al ([2016]). Briefly, 1 h after blocking in 5% normal goat serum and 0.1% Triton X‐100 solution, free‐floating sections were incubated overnight at 4°C with one of the following primary antibodies: anti‐phospho‐p44/42 MAP kinase (Thr202/Tyr204) (1:200, Cell Signaling Technology #9101), anti‐phospho–Elk‐1 (Ser383) (1:100, Cell Signaling #9181), anti‐phospho‐Kv4.2 (Thr607)‐R (1:100, Santa Cruz sc22254‐R), anti‐phospho‐MSK‐1 (1:100 Cell Signaling Technology #9595), anti‐phospho‐MEK1/2 (Ser218/222) (1:100, sc‐7995 Santa Cruz Biotechnology), c‐Fos (1:100, sc‐52 Santa Cruz Biotechnology), tyrosine Hydroxylase (monoclonal 1:1,000, Sigma Aldrich, Italy) and anti‐DARPP‐32 (H3) (1:100, Santa Cruz Biotechnology, #sc‐271111) overnight at 4°C. Sections were then incubated with biotinylated goat anti‐rabbit IgG (1:200, Vector Laboratories) or biotinylated goat anti‐mouse (1:200, Vector Laboratories) for 2 h. The classic avidin‐peroxidase complex (ABC, Vector, UK) protocol was applied, using 3,3′‐diaminobenzidine (DAB, Sigma) as a chromogen.
For in vivo immunohistochemistry experiments, images were acquired from the dorsal striatum using a Leica DM IRB microscope under a 20× objective. The number of p‐ERK, p‐MSK‐1, p‐ELK, p‐MEK‐1, p‐VG K+, c‐Fos, and DARPP‐32 positive cells was counted in 2–3 consecutive sections per mouse, bilaterally and averaged across the sections using the ImageJ software by a blind investigator to the condition. Estimation of nigral cell loss was assessed by quantifying the number of TH‐immunopositive neurons of the SNc in 360 μm‐spaced sections for each animal.

[1] = test system: p-ERK1/2 in CTIP2+ neurons; assay: p-ERK1/2 in CTIP2+ iPSC-derived HD MSNs; type: cell-based, human; conditions: for p-ERK1/2 in CTIP2+ neurons (Fig 5 panel f): individual replicates
Method: The human induced pluripotent stem cell line CS09iHD109‐n1 (herein referred to as Q109N1) was originally generated from a human fibroblast line ND39258 (RRID:CVCL_ZC78) with an expanded HTT allele initially containing 109 pure CAG trinucleotides, and the isogenic control lines used were derived by CRISPR gene‐edit to reduce the CAG repeat length to 20 repeats (Mattis et al, [2015]). IPSCS were cultured on hESC‐qualified Matrigel (Corning) in E8‐Flex medium (Thermo Fisher) and passaged with RelesR (Stem Cell Technologies) according to the manufacturer's instructions. For neural differentiation iPSCS were grown to 70% confluency and then treated with 10 μM Y‐27632 (Tocris) for 1 h before harvesting by dissociation to a single cell suspension using accutase (Sigma). IPSCs were replated onto fresh Matrigel‐coated plates at a split ratio of 1:2, in E8‐Flex medium containing 10 μM Y‐27632. After overnight culture, IPSCs at 80–90% confluency were washed with PBS pH 7.4 (Gibco) and then switched to neural induction medium (Advanced DMEM/F12 (1:1) supplemented with 2 mM GlutamaxTM (Gibco), 2% Neurobrew without vitamin A (Miltenyi), 10 μM SB431542, 1 μM LDN 193189 (both Stem Cell Technologies), and 1.5 μM IWR1 (Tocris)). Medium was changed daily until day 8, when cells were passaged 1:2 by cell dissociation with Accutase for 5 min at 37°C and replated on Matrigel® coated plates in LIA medium containing (Advanced DMEM/F12 (1:1) supplemented with 2 mM GlutamaxTM, 2% Neurobrew without vitamin A, 0.2 μM LDN 193189, 1.5 μM IWR1, and 20 ng/ml Activin A (Peprotech)). At day 16, cells were plated for neuronal differentiation according to (Telezhkin et al, [2016]). […]
Images were acquired using a confocal microscope (Zeiss LSM710) under a 20× objective and analyzed with ImageJ software.

GRKKRRQRRRPPQGGGGGEPRRTEGVGPGVPGEVEMVKGQPFDV [RB5, six D-amino acids, acetylated N-terminus]
p-ERK positive cells in striatum (p-ERK; ERK1+/+ (WT) mice): enhanced pERK and pAcH3 in WT | p-ERK positive cells in striatum (p-ERK; ERK1-/- mice): not in ERK1 KO mice | p-ERK positive cells in striatum (p-ERK; 1 h): greatly enhanced striatal ERK phosphorylation | p-ERK1/2 in CTIP2+ neurons (Fig 5 panel f) ([1]; CTR iPSC-derived MSNs): 40.5874 and 43.5065 and 59.0476 and 55.7538 and 63.8384 and 58.6194 | p-ERK1/2 in CTIP2+ neurons ([1]; HD and isogenic control iPSC-derived MSNs, 50 μM, 30 min): induced ERK activation | p-ERK1/2 in CTIP2+ neurons (Fig 5 panel f) ([1]; HD iPSC-derived MSNs): 50.2062 and 59.3301 and 53.5036 and 55.8187 and 47.3002 and 65.1771

Reference: PMC10630888, “Nuclear ERK1/2 signaling potentiation enhances neuroprotection and cognition via Importinα1/KPNA2” (EMBO Molecular Medicine, 2023)
